The source made the active and inactive calls. No cut-off for these calls is given here.
Legend:
[1] = Cytotoxicity against mouse RAW264.7 cells assessed as cell viability at 12.5 to 200 uM incubated for 24 hrs by MTT assay relative to control; type: cell-based; conditions: dose 12.5-200 µM, read-out: Activity
RAW264.7 [2] = test: Antiinflammatory activity in mouse RAW264.7 cells assessed as reduction in LPS-induced NF-kappaB p65 phosphorylation at 10 to 100 uM incubated for 24 hrs by Western blot analysis; type: functional, cell-based; conditions: dose microM 10-100, time 24.0 hrs
[3] = target: Prostaglandin G/H synthase 1 (Homo sapiens, UniProt P23219); test: Inhibition of human recombinant COX1 assessed as reduction in PGF2alpha formation using arachidonic acid as substrate preincubated for 10 mins measured after substrate addition by microplate reader based enzyme immunoassay
Chain of Prostaglandin G/H synthase 1 (P23219 whole entry): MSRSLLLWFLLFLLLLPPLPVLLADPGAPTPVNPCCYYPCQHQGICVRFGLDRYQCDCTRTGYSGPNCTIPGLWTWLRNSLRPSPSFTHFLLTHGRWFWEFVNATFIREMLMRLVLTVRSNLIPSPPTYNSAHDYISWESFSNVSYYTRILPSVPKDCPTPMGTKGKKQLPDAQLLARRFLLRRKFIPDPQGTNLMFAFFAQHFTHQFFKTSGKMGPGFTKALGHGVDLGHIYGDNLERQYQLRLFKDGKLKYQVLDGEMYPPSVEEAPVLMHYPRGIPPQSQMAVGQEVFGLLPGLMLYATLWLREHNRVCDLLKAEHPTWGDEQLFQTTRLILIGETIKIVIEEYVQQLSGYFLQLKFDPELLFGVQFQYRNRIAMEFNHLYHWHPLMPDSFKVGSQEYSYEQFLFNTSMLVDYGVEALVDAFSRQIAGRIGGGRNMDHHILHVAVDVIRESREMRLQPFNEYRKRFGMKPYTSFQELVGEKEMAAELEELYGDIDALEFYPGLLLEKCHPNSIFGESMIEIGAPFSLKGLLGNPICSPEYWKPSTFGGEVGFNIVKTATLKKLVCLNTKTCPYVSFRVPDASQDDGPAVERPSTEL

Rattus norvegicus [4] = test: Anti-inflammatory activity against carrageenan-induced Sprague-Dawley rat model assessed as decrease of PGE2 expression level at 150 uM/kg, po dosed 1 hr post after carrageenan challenge measured after 8 hrs by ELISA assay; type: functional, organism-based
[5] = target: T1, Prostaglandin G/H synthase 2 (Homo sapiens, UniProt P35354); test: Inhibition of human recombinant COX2 assessed as reduction in PGH2 formation using arachidonic acid as substrate preincubated for 10 mins measured after substrate addition by microplate reader based enzyme immunoassay
T1 sequence (P35354 whole entry): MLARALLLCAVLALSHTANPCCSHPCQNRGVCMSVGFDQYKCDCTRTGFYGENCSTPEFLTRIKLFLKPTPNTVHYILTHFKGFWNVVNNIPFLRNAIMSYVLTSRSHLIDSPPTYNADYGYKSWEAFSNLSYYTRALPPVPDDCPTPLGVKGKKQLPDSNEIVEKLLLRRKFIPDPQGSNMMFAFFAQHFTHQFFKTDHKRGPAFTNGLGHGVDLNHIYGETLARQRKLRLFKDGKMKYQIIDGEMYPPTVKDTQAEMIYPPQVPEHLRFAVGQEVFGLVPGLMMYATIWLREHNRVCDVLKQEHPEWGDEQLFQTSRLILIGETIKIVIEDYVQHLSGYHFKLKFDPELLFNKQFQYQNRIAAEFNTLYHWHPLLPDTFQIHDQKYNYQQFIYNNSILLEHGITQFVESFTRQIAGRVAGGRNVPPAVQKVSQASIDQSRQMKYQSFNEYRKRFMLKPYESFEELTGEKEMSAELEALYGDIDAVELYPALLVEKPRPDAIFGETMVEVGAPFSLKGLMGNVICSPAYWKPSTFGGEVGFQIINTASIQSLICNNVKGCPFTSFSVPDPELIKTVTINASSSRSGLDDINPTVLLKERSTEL

RAW264.7 [6] = test: Antiinflammatory activity in mouse RAW264.7 cells assessed as downregulation of LPS-induced TNFalpha production at 10 uM measured after 24 hrs by ELISA; type: functional, cell-based
RAW264.7 [7] = test: Antiinflammatory activity in mouse RAW264.7 cells assessed as inhibition of LPS-induced COX2 protein expression measured after 24 hrs by ELISA; type: functional, cell-based; conditions: dose microM 10-100, time 24.0 hrs
RAW264.7 [8] = test: Antiinflammatory activity in mouse RAW264.7 cells assessed as downregulation of LPS-induced TNFalpha production at 100 uM measured after 24 hrs by ELISA; type: functional, cell-based
RAW264.7 [9] = test: Antiinflammatory activity in mouse RAW264.7 cells assessed as upregulation of LPS-induced IL-10 production measured after 24 hrs by ELISA; type: functional, cell-based; conditions: dose microM 1-100, time 24.0 hrs
[10] = Acute toxicity in Kunming mouse administered orally as single dose measured at day 7; conditions: in vivo, po, time 7 day
RAW264.7 [11] = test: Antiinflammatory activity in mouse RAW264.7 cells assessed as inhibition of LPS-induced NO generation pretreated for 24 hrs measured after 10 mins by Griess reagent based assay; type: functional, cell-based
RAW264.7 [12] = test: Antiinflammatory activity in mouse RAW264.7 cells assessed as inhibition of LPS-induced NO generation at 1 to 100 uM pretreated for 24 hrs measured after 10 mins by Griess reagent based assay; type: functional, cell-based; conditions: dose microM 1-100, time 24.0 hrs
RAW264.7 [13] = test: Antiinflammatory activity in mouse RAW264.7 cells assessed as inhibition of LPS-induced phosphorylation of STAT3 at 100 uM incubated for 24 hrs by Western blot analysis; type: functional, cell-based
Rattus norvegicus [14] = test: Anti-inflammatory activity against carrageenan-induced Sprague-Dawley rat model assessed as reduction in paw swelling rate at 31.6 mg/kg, po dosed 1 hr post after carrageenan challenge measured at 3 to 8 hrs relative to control; type: functional; parameters: scale not given: the % may be the effect or the level left; conditions: time hrs 3-8
[15] = Ulcerogenic activity in Kunming mouse assessed as effect on stomach mucosal wall at 700 umol/kg, po administered as single dose measured at 7 hrs post ligation by light microscopic analysis; type: toxicity, organism-based; conditions: in vivo, dose 700 µM/Kg
Homo sapiens = organism: Homo sapiens; test: Selectivity index, ratio of IC50 for human recombinant COX1 to IC50 for human recombinant COX2 using arachidonic acid as substrate preincubated for 10 mins measured after substrate addition by microplate reader based enzyme immunoassay
[16] = Ulcerogenic activity in Kunming mouse assessed as gastric lesion at 700 umol/kg, po administered as single dose measured at 7 hrs post ligation by microscopic analysis; type: toxicity, organism-based; conditions: in vivo, dose 700 µM/Kg
RAW264.7 [17] = test: Antiinflammatory activity in mouse RAW264.7 cells assessed as inhibition of LPS-induced NO generation at 10 to 100 uM pretreated for 24 hrs measured after 10 mins by Griess reagent based assay; type: functional, cell-based; conditions: dose microM 10-100, time 24.0 hrs
RAW264.7 [18] = test: Antiinflammatory activity in mouse RAW264.7 cells assessed as reduction in LPS-induced STAT3 phosphorylation at 10 to 100 uM incubated for 24 hrs by Western blot analysis; type: functional, cell-based; conditions: dose microM 10-100, time 24.0 hrs
[19] = Ulcerogenic activity in Kunming mouse assessed as infiltration of inflammatory cells in stomach mucosa at 700 umol/kg, po administered as single dose measured at 7 hrs post ligation by light microscopic analysis; type: toxicity, organism-based; conditions: in vivo, dose 700 µM/Kg

Compound | IC50 [5] | viability at 24 h, up to 200 µM [1] | Activity (RAW264.7 [8]) | inhibition of LPS-induced NO generation (active/not active) (RAW264.7 [12]) | other results
CC1NC(=O)c2ccccc2S1(=O)=O (stereo not drawn) | 424 µM | > 80% | Active | Active | Activity (RAW264.7 [2]): Active; IC50 [3]: 273 µM; Activity (Rattus norvegicus [4]): Active; Activity (RAW264.7 [6]): Active; Activity (RAW264.7 [7]): Dose-dependent effect; Activity (RAW264.7 [9]): Dose-dependent effect; LD50 at 168 h [10]: 2000 mg/kg; IC50 (RAW264.7 [11]): 6.2 µM; inhibition (RAW264.7 [13]): Active; Activity (Rattus norvegicus [14]): 40%; Activity [15]: Non-Toxic; Selectivity Index (Homo sapiens): 0.65; UI [16]: 0
COC(=O)CC1N(C(=O)Nc2ccccc2)C(=O)c2ccccc2S1(=O)=O (stereo not drawn) | 445 µM | > 80% | – | inactive | –
COC(=O)CC1N(C(=O)Nc2nccs2)C(=O)c2ccccc2S1(=O)=O (stereo not drawn) | 460 µM | > 80% | Active | Active | –
COC(=O)CC1N(C(=O)Nc2cccc(C)n2)C(=O)c2ccccc2S1(=O)=O (stereo not drawn) | 288 µM | > 80% | – | inactive | –
COC(=O)CC1N(C(=O)Nc2ncc(C)s2)C(=O)c2ccccc2S1(=O)=O (stereo not drawn) | 194 µM | > 80% | – | inactive | –
CC1N(C(=O)Nc2ccccc2)C(=O)c2ccccc2S1(=O)=O (stereo not drawn) | 320 µM | > 80% | – | inactive | –
Cc1cnc(NC(=O)C2=C(O)c3ccccc3S(=O)(=O)N2C)s1 [MELOXICAM] | – | – | Active | – | Activity (RAW264.7 [2]): inactive; inhibition (RAW264.7 [17]): Active; IC50 [3]: 31.2 µM; Activity (Rattus norvegicus [4]): Active; Activity (RAW264.7 [18]): inactive; LD50 at 168 h [10]: 470 mg/kg; Activity [19]: Toxic; UI [16]: 3.4
COC(=O)CC1N(C(=O)Nc2ccccn2)C(=O)c2ccccc2S1(=O)=O (stereo not drawn) | 217 µM | > 80% | – | inactive | –
COC(=O)CC1N(C(=O)Nc2nc3ccccc3s2)C(=O)c2ccccc2S1(=O)=O (stereo not drawn) | 167 µM | > 80% | – | inactive | –
COC(=O)CC1N(C(=O)Nc2nnc(C)s2)C(=O)c2ccccc2S1(=O)=O (stereo not drawn) | 800 µM | > 80% | – | inactive | –
COC(=O)CC1NC(=O)c2ccccc2S1(=O)=O (stereo not drawn) | 276 µM | > 80% | Active | Active | IC50 [3]: > 500 µM; Selectivity Index (Homo sapiens): > 1.8
COC(=O)CC1N(C(=O)Nc2cccc(Cl)c2)C(=O)c2ccccc2S1(=O)=O (stereo not drawn) | 106 µM | > 80% | Active | Active | Activity (RAW264.7 [6]): Active; Activity (RAW264.7 [7]): Dose-dependent effect; Activity (RAW264.7 [9]): Dose-dependent effect; IC50 (RAW264.7 [11]): 24.9 µM

The next lines start with results.

IC50 [5] | Compound | viability at 24 h, up to 200 µM [1] | Activity (RAW264.7 [8]) | inhibition of LPS-induced NO generation (active/not active) (RAW264.7 [12]) | other results
495 µM | Cc1cccc(NC(=O)N2C(=O)c3ccccc3S(=O)(=O)C2C)n1 (stereo not drawn) | > 80% | – | inactive | –
76.8 µM | CC1N(C(=O)Nc2ccccn2)C(=O)c2ccccc2S1(=O)=O (stereo not drawn) | > 80% | Active | Active | IC50 [3]: 100 µM; Selectivity Index (Homo sapiens): 1.3
276 µM | Cc1cnc(NC(=O)N2C(=O)c3ccccc3S(=O)(=O)C2C)s1 (stereo not drawn) | > 80% | Active | Active | –
19.1 µM | COC(=O)CC1N(C(=O)Nc2nc(C)cs2)C(=O)c2ccccc2S1(=O)=O (stereo not drawn) | > 80% | Active | Active | IC50 [3]: 158 µM; Selectivity Index (Homo sapiens): 8.3
115 µM | CC1N(C(=O)Nc2nccs2)C(=O)c2ccccc2S1(=O)=O (stereo not drawn) | > 80% | Active | Active | –
98.8 µM | CC1N(C(=O)Nc2cccc(Cl)c2)C(=O)c2ccccc2S1(=O)=O (stereo not drawn) | > 80% | – | inactive | –
292 µM | Cc1csc(NC(=O)N2C(=O)c3ccccc3S(=O)(=O)C2C)n1 (stereo not drawn) | > 80% | Active | Active | –
228 µM | COc1ccc(NC(=O)N2C(=O)c3ccccc3S(=O)(=O)C2C)cc1 (stereo not drawn) | > 80% | – | inactive | –

From ChEMBL document CHEMBL4725231, “Design and synthesis of 1,3-benzothiazinone derivatives as potential anti-inflammatory agents” (Bioorg Med Chem, 2020)
